Reference: BindingDB's records for doi:10.1016/j.chembiol.2006.05.008 (Gpc Biotech, 2006)
pEC50, pIC50: −log10 of the molar value.

Molecular target: Cyclin-dependent kinase 2 (Homo sapiens, UniProt P24941)
Experiment: Enzymatic Assay
Description: CAII assays were performed at CEREP (paris). All other kinase assays were performed at Upstate (Dundee, UK).

pEC50: 7.15 | pIC50: 7.70
Compound: CC(C)c1nn(-c2c(Cl)cc(Cl)cc2Cl)c2nc(Cc3ccc(OC(C)(C)C(=O)O)cc3)[nH]c(=O)c12 [RGB-285961]
